Measured values taken from patent US4259235A, “Tricyclic nitrogenous compounds having string plant growth regulating properties” (BASF Aktiengesellschaft, priority 1977, dated 1981).
Where two headings read alike, the source gives them in different places.

Assays:
Mentha piper. = test: Herbicidal action, pre- and postemergence application in the greenhouse; type: in vivo; conditions: post-emergence; 3.0 kg/ha POST; read-out: % damage
Description: (§1) Plastic flowerpots having a volume of 300 cm^3 were filled with a sandy loam and the test plants placed therein (either as seed, as vegetatively reproduced species, or as potted plants, e.g., vines). For preemergence treatment, the active ingredients were suspended or emulsified in water as vehicle and sprayed onto the surface of the soil immediately after sowing by means of finely distributing nozzles. The potted vines were treated by spraying them with the correspondingly diluted liquor. For postemergence treatment, the agents were, as stated above, sprayed in water onto the leaves of the test plants, some liquor also falling onto the soil. In some special cases, solid active ingredients were first dissolved in dimethylformamide and then applied in a total liquor amount of 400 liters of water per hectare. For the postemergence treatment, the plants were first grown to a height of from 3 to 10 cm before being treated. With grasses, the first growth was cut, and the new growth treated 2 to 3 days after cutting. The temperature requirements of the plants were taken into account by placing them in cooler or warmer sections of the greenhouse. The experiments were run for from 4 to 6 weeks, during which time the plants were tended and their reaction to the various treatments was assessed.
(§2) The application rates are given in kg/ha of active ingredient, regardless of the method of application and the amount of water used.
(§3) A 0 to 100 scale was used for the evaluation, 0 denoting normal emergence or no damage (or no inhibition), and 100 denoting non-emergence or complete destruction of the plants. A distinction should be made in the influence on growth between desired changes without any appreciable disadvantageous phytotoxic effects (e.g., purely growth-regulating effects) and those of a phytotoxic herbicical character.

Lolium mult. = test: as above; type: in vivo; conditions: for pest or weed control at 3000 g/ha: Lolium, post-emergence, read-out: % damage
Description: as §1, §2, §3

Sinapis alba = test: as above; type: in vivo; conditions: post-emergence, read-out: % damage
Description: as §1, §2, §3

Viola tric. = test: as above; type: in vivo; conditions: 3.0 kg/ha POST
Description: as §1, §2, §3

Ipom. spp. = test: as above; type: in vivo, Ipomoea spp.; conditions: Ipomoea, post-emergence; 3.0 kg/ha POST; read-out: % damage
Description: as §1, §2, §3

Euph. gen. = test: as above; type: in vivo, Euphorbia geniculata
Description: as §1, §2, §3

Cynodon dact. (seed) = test: as above; type: in vivo, Cynodon dactylon
Description: as §1, §2, §3

Lam. spp. = test: Removal and inhibition of unwanted plants, preemergence, greenhouse; type: in vivo
Description: as §1, §2, §3

Setar. spp. = test: as above; type: in vivo
Description: as §1, §2, §3

Cyper. esc. = test: as above; type: in vivo, Cyperus esculentus
Description: as §1, §2, §3

Echin. c.g. = test: as above; type: in vivo, Echinochloa crus galli
Description: as §1, §2, §3

Solan. nig. = test: as above; type: in vivo, Solanum nigrum
Description: as §1, §2, §3

## OC1C(O)C2CC1C1N=NC21 (stereo not drawn)
Mentha piper.
  pest or weed control at 3000 g/ha: 100%
Lolium mult.; 3.0 kg/ha POST
  pest or weed control at 3000 g/ha: 95%
Lolium mult.; 3.0 kg/ha PRE
  pest or weed control at 3000 g/ha: 90%
Sinapis alba; 3.0 kg/ha PRE
  pest or weed control at 3000 g/ha: 80%
Viola tric.
  % damage: 95%
Ipom. spp.
  pest or weed control at 3000 g/ha: 100%

## ClC1C(Cl)C2CC1C1N=NC21 (stereo not drawn)
Lolium mult.; 3.0 kg/ha POST
  % damage: 100%
Lolium mult.
  pest or weed control at 3000 g/ha: 100%
Euph. gen.; 1.0 kg/ha PRE
  % damage: 70%
Euph. gen.; 2.0 kg/ha POST
  % damage: 95%
Cynodon dact. (seed); 1.0 kg/ha PRE
  % damage: 90%
Cynodon dact. (seed); 2.0 kg/ha POST
  % damage: 100%

## BrC1C(Br)C2CC1C1N=NC21 (stereo not drawn) [drawing 430]
Lam. spp.; 2.0 kg/ha PRE
  % damage: 95%
Lam. spp.; 4.0 kg/ha PRE
  % damage: 95%
Lam. spp.; 8.0 kg/ha PRE
  % damage: 95%
Setar. spp.; 2.0 kg/ha PRE
  % damage: 100%
Setar. spp.; 4.0 kg/ha PRE
  % damage: 100%
Setar. spp.; 8.0 kg/ha PRE
  % damage: 100%
Cyper. esc.; 2.0 kg/ha PRE
  % damage: 20%
Cyper. esc.; 4.0 kg/ha PRE
  % damage: 55%
Cyper. esc.; 8.0 kg/ha PRE
  % damage: 70%
Echin. c.g.; 2.0 kg/ha PRE
  % damage: 50%
Echin. c.g.; 4.0 kg/ha PRE
  % damage: 80%
Echin. c.g.; 8.0 kg/ha PRE
  % damage: 90%
Solan. nig.; 2.0 kg/ha PRE
  % damage: 95%
Solan. nig.; 4.0 kg/ha PRE
  % damage: 95%
Solan. nig.; 8.0 kg/ha PRE
  % damage: 95%

## BrC1C(Br)C2CC1C1N=NC21 (stereo not drawn) [drawing 442]
Lolium mult.; 3.0 kg/ha POST
  pest or weed control at 3000 g/ha: 100%
Lolium mult.; 3.0 kg/ha PRE
  pest or weed control at 3000 g/ha: 40%
Sinapis alba; 3.0 kg/ha POST
  pest or weed control at 3000 g/ha: 100%
Sinapis alba; 3.0 kg/ha PRE
  pest or weed control at 3000 g/ha: 70%
Euph. gen.; 1.0 kg/ha PRE
  % damage: 90%
Cynodon dact. (seed); 1.0 kg/ha PRE
  % damage: 100%
